# According to patent publication US8883788B2, “Fused heterocyclic ring compound” (Takeda Pharmaceutical Company Limited, priority 2010, dated 2014):
# Target: T1, human PDE10A enzyme (Homo sapiens, UniProt Q9Y233)
# T1 construct: Human PDE10A full-length gene was transfected into Sf9 or COS-7 cells; His-tag; made in house; host or cells: Sf9 or COS-7 cells
# Experiment: PDE10A enzyme activity inhibition test (SPA)
# Format: biochemical
# Settings: compound 1 μM, substrate [3H]cGMP, 60 min at room temperature, read-out: inhibition rate (%) (1 μM)
# Protocol: Human PDE10A full-length gene was transfected into Sf9 or COS-7 cells. The cells were disrupted and centrifuged, and human PDE10A enzyme was obtained from the residue. The enzyme extracted from Sf9 cells was partially purified using His-tag affinity column. The enzyme was stored at −70° C. until use. The PDE activity was measured using an SPA (Scintillation Proximity Assay) (GE Healthcare). To measure the inhibitory activity of the compound, 10 μL of serially diluted compound was reacted with 20 μL of PDE enzyme in an assay buffer (50 mM HEPES-NaOH, 8.3 mM MgCl2, 1.7 mM EGTA, 0.1% BSA (pH 7.4)) […] at room temperature. The final concentration of DMSO in the reaction mixture was 1 percent. The compounds were evaluated in duplicate in 96-well half-area plates (Corning). To start the reaction, 10 μL of substrate [^3H] cGMP (25 and 50 nM; GE Healthcare and PerkinElmer, respectively) was added to 40 μL. After 60 min of reaction at room temperature, yttrium SPA beads containing zinc sulphate were added (6 mg/mL, 20 μL) to terminate the reaction. After standing still for 1 hr, the measurement was performed using a scintillation counter (PerkinElmer) and the inhibition rate was calculated. The inhibition rate was calculated based on the control containing enzyme and DMSO as 0% and the control without enzyme as 100%.
# T1 sequence (Q9Y233 267-1055): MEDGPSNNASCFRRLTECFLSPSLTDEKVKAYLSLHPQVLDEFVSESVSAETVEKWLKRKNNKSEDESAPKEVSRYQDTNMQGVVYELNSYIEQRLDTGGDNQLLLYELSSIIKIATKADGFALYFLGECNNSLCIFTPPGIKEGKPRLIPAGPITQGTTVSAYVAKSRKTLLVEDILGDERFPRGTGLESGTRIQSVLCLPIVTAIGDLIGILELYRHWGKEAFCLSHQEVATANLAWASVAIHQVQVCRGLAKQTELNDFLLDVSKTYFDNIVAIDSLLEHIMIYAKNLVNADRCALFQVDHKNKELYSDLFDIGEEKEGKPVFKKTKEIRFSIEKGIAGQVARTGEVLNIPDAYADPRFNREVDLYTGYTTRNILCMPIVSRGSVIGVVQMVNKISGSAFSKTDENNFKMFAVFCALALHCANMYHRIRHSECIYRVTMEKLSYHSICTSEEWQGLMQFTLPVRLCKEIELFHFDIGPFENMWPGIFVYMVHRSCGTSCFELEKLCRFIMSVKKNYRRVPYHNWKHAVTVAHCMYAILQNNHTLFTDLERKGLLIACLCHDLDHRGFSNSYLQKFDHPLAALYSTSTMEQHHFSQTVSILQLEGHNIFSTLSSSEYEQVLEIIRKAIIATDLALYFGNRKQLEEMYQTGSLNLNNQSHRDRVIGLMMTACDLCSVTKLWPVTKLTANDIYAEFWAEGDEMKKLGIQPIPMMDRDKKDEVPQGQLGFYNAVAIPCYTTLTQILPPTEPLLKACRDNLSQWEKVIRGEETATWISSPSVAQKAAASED
row,SMILES,inhibition at 1 µM [%]
1,"O=c1c(OCCN2CCn3c2nc2ccccc23)cn(CC2CC2)nc1-c1ccnn1-c1ccccc1 [Example 4, 1-(cyclopropylmethyl)-5-[2-(2,3-dihydro-1H-imidazo[1,2-a]benzimidazol-1-yl)ethoxy]-3-(1-phenyl-1H-pyrazol-5-yl)pyridazin-4(1H)-one]",100
2,"Cn1nccc1-c1nn(-c2ccccc2)cc(OCCCc2nc3ccccc3n2C)c1=O [Example 5, 5-[3-(1-methyl-1H-benzimidazol-2-yl)propoxy]-3-(1-methyl-1H-pyrazol-5-yl)-1-phenylpyridazin-4(1H)-one]",95.4
3,"Cn1nccc1-c1nn(-c2ccccc2)cc(OCCN2CCn3c2nc2ccccc23)c1=O [Example 6, 5-[2-(2,3-dihydro-1H-imidazo[1,2-a]benzimidazol-1-yl)ethoxy]-3-(1-methyl-1H-pyrazol-5-yl)-1-phenylpyridazin-4(1H)-one]",97.2
4,"Cn1nccc1-c1nn(-c2ccccc2)cc(OCCc2ccc3ccccc3n2)c1=O [Example 7, 3-(1-methyl-1H-pyrazol-5-yl)-1-phenyl-5-(2-quinolin-2-ylethoxy)pyridazin-4(1H)-one]",96.8
5,"Cn1nccc1-c1nn(-c2ccccc2)cc(OCc2ccc3ccccc3n2)c1=O [Example 8, 3-(1-methyl-1H-pyrazol-5-yl)-1-phenyl-5-(quinolin-2-ylmethoxy)pyridazin-4(1H)-one]",68.4
6,"O=c1cnn(-c2cccc(C(F)(F)F)c2)cc1OCc1ccc2ccccc2n1 [Example 9, 5-(quinolin-2-ylmethoxy)-1-[3-(trifluoromethyl)phenyl]pyridazin-4(1H)-one]",6.5
7,"Cn1c(CCCOc2cn(CC3CC3)nc(-c3ccnn3-c3ccccc3)c2=O)nc2cccnc21 [Example 13, 1-(cyclopropylmethyl)-5-[3-(3-methyl-3H-imidazo[4,5-b]pyridin-2-yl)propoxy]-3-(1-phenyl-1H-pyrazol-5-yl)pyridazin-4(1H)-one]",100
8,"Cn1c(OCCOc2cn(CC3CC3)nc(-c3ccnn3-c3ccccc3)c2=O)nc2ccccc21 [Example 14, 1-(cyclopropylmethyl)-5-{2-[(1-methyl-1H-benzimidazol-2-yl)oxy]ethoxy}-3-(1-phenyl-1H-pyrazol-5-yl)pyridazin-4 (H)-one]",98
9,"O=c1c(OCCOc2ccc3ccccc3n2)cn(CC2CC2)nc1-c1ccnn1-c1ccccc1 [Example 15, 1-(cyclopropylmethyl)-3-(1-phenyl-1H-pyrazol-5-yl)-5-[2-(quinolin-2-yloxy)ethoxy]pyridazin-4(1H)-one]",13
10,"O=c1c(OCc2ccc3ccccc3n2)cn(CC2CC2)nc1-c1ccnn1-c1ccccc1 [Example 17, 1-(cyclopropylmethyl)-3-(1-phenyl-1H-pyrazol-5-yl)-5-(quinolin-2-ylmethoxy)pyridazin-4(1H)-one]",60
11,"O=c1c(OCc2ccc3cccnc3c2)cn(CC2CC2)nc1-c1ccnn1-c1ccccc1 [Example 18, 1-(cyclopropylmethyl)-3-(1-phenyl-1H-pyrazol-5-yl)-5-(quinolin-7-ylmethoxy)pyridazin-4(1H)-one]",20
12,"O=c1c(OCCn2ccn3ccnc23)cn(CC2CC2)nc1-c1ccnn1-c1ccccc1 [Example 19, 1-(cyclopropylmethyl)-5-[2-(1H-imidazo[1,2-a]imidazol-1-yl)ethoxy]-3-(1-phenyl-1H-pyrazol-5-yl)pyridazin-4(1H)-one]",94
13,"Cn1c(CCCOc2cn(C3CCC3)nc(-c3ccnn3-c3ccccc3)c2=O)nc2cccnc21 [Example 21, 1-cyclobutyl-5-[3-(3-methyl-3H-imidazo[4,5-b]pyridin-2-yl)propoxy]-3-(1-phenyl-1H-pyrazol-5-yl)pyridazin-4 (H)-one]",107
14,"O=c1c(OCCN2CCn3c2nc2ccccc23)cn(C2CCC2)nc1-c1ccnn1-c1ccccc1 [Example 22, 1-cyclobutyl-5-[2-(2,3-dihydro-1H-imidazo[1,2-a]benzimidazol-1-yl)ethoxy]-3-(1-phenyl-1H-pyrazol-5-yl)pyridazin-4 (H)-one]",98
15,"Cn1c(OCCOc2cn(C3CCC3)nc(-c3ccnn3-c3ccccc3)c2=O)nc2ccccc21 [Example 23, 1-cyclobutyl-5-{2-[(1-methyl-1H-benzimidazol-2-yl)oxy]ethoxy}-3-(1-phenyl-1H-pyrazol-5-yl)pyridazin-4(1H)-one]",100
16,"Cn1c(CCCOc2cn(CC(F)(F)F)nc(-c3ccnn3-c3ccccc3)c2=O)nc2cccnc21 [Example 26, 5-[3-(3-methyl-3H-imidazo[4,5-b]pyridin-2-yl)propoxy]-3-(1-phenyl-1H-pyrazol-5-yl)-1-(2,2,2-trifluoroethyl)pyridazin-4(1H)-one]",101
17,"O=c1c(OCCN2CCn3c2nc2ccccc23)cn(CC(F)(F)F)nc1-c1ccnn1-c1ccccc1 [Example 27, 5-[2-(2,3-dihydro-1H-imidazo[1,2-a]benzimidazol-1-yl)ethoxy]-3-(1-phenyl-1H-pyrazol-5-yl)-1-(2,2,2-trifluoroethyl)pyridazin-4(1H)-one]",98

# Next, values leading:
row,inhibition at 1 µM [%],SMILES
1,96,"Cn1cc(OCCCc2nc3ccccc3n2C)c(=O)c(-c2ccnn2-c2ccccc2)n1 [Example 1, 1-methyl-5-[3-(1-methyl-1H-benzimidazol-2-yl)propoxy]-3-(1-phenyl-1H-pyrazol-5-yl)pyridazin-4(1H)-one]"
2,101,"Cn1cc(OCCN2CCn3c2nc2ccccc23)c(=O)c(-c2ccnn2-c2ccccc2)n1 [Example 2, 5-[2-(2,3-dihydro-1H-imidazo[1,2-a]benzimidazol-1-yl)ethoxy]-1-methyl-3-(1-phenyl-1H-pyrazol-5-yl)pyridazin-4(1H)-one]"
3,98,"Cn1c(CCCOc2cn(CC3CC3)nc(-c3ccnn3-c3ccccc3)c2=O)nc2ccccc21 [Example 3, 1-(cyclopropylmethyl)-5-[3-(1-methyl-1H-benzimidazol-2-yl)propoxy]-3-(1-phenyl-1H-pyrazol-5-yl)pyridazin-4(1H)-one]"
4,95,"Cn1cc(OCCOc2nc3ccccc3n2C)c(=O)c(-c2ccnn2-c2ccccc2)n1 [Example 10, 1-methyl-5-{2-[(1-methyl-1H-benzimidazol-2-yl)oxy]ethoxy}-3-(1-phenyl-1H-pyrazol-5-yl)pyridazin-4(1H)-one]"
5,100,"Cn1cc(OCCCc2cn3ccccc3n2)c(=O)c(-c2ccnn2-c2ccccc2)n1 [Example 11, 5-(3-imidazo[1,2-a]pyridin-2-ylpropoxy)-1-methyl-3-(1-phenyl-1H-pyrazol-5-yl)pyridazin-4(1H)-one]"
6,102,"Cn1cc(OCCCc2nc3cccnc3n2C)c(=O)c(-c2ccnn2-c2ccccc2)n1 [Example 12, 1-methyl-5-[3-(3-methyl-3H-imidazo[4,5-b]pyridin-2-yl)propoxy]-3-(1-phenyl-1H-pyrazol-5-yl)pyridazin-4(1H)-one]"
7,98,"O=c1c(OCCCc2cn3ccccc3n2)cn(CC2CC2)nc1-c1ccnn1-c1ccccc1 [Example 16, 1-(cyclopropylmethyl)-5-(3-imidazo[1,2-a]pyridin-2-ylpropoxy)-3-(1-phenyl-1H-pyrazol-5-yl)pyridazin-4(1H)-one]"
8,99,"Cn1c(CCCOc2cn(C3CCC3)nc(-c3ccnn3-c3ccccc3)c2=O)nc2ccccc21 [Example 20, 1-cyclobutyl-5-[3-(1-methyl-1H-benzimidazol-2-yl)propoxy]-3-(1-phenyl-1H-pyrazol-5-yl)pyridazin-4(1H)-one]"
9,100,"O=c1c(OCCCc2cn3ccccc3n2)cn(C2CCC2)nc1-c1ccnn1-c1ccccc1 [Example 24, 1-cyclobutyl-5-(3-imidazo[1,2-a]pyridin-2-ylpropoxy)-3-(1-phenyl-1H-pyrazol-5-yl)pyridazin-4(1H)-one]"
10,96,"Cn1c(CCCOc2cn(CC(F)(F)F)nc(-c3ccnn3-c3ccccc3)c2=O)nc2ccccc21 [Example 25, 5-[3-(1-methyl-1H-benzimidazol-2-yl)propoxy]-3-(1-phenyl-1H-pyrazol-5-yl)-1-(2,2,2-trifluoroethyl)pyridazin-4(1H)-one]"
